Measurements: patent US7115622B2, “Amido ether substituted imidazoquinolines” (3M Innovative Properties Company, priority 2000, dated 2006)

How the values were obtained:
[1] = tested on: interferon (α); assay: Cytokine Induction in Human Cells: interferon induction in PBMC; assay type: cell-based; conditions: 18 to 24 hours incubation, tested 30–0.014 μM, ELISA, read-out: Lowest Effective Concentration (μM) Interferon
Text: (§1) An in vitro human blood cell system is used to assess cytokine induction. Activity is based on the measurement of interferon and tumor necrosis factor (α) (IFN and TNF, respectively) secreted into culture media as described by Testerman et. al. In “Cytokine Induction by the Immunomodulators Imiquimod and S-27609”, Journal of Leukocyte Biology, 58, 365–372 (September, 1995).
(§2) Whole blood from healthy human donors is collected by venipuncture into EDTA vacutainer tubes. Peripheral blood mononuclear cells (PBMC) are separated from whole blood by density gradient centrifugation using Histopaque®-1077. Blood is diluted 1:1 with Dulbecco's Phosphate Buffered Saline (DPBS) or Hank's Balanced Salts Solution (HBSS). The PBMC layer is collected and washed twice with DPBS or HBSS and resuspended at 4×10^6 cells/mL in RPMI complete. The PBMC suspension is added to 48 well flat bottom sterile tissue culture plates (Costar, Cambridge, Mass. or Becton Dickinson Labware, Lincoln Park, N.J.) containing an equal volume of RPMI complete media containing test compound.
(§3) The compounds are solubilized in dimethyl sulfoxide (DMSO). The DMSO concentration should not exceed a final concentration of 1% for addition to the culture wells. The compounds are generally tested at concentrations ranging from 30–0.014 μM.
(§4) The solution of test compound is added at 60 μM to the first well containing RPMI complete and serial 3 fold dilutions are made in the wells. The PBMC suspension is then added to the wells in an equal volume, bringing the test compound concentrations to the desired range (30–0.014 μM). The final concentration of PBMC suspension is 2×10^6 cells/mL. The plates are covered with sterile plastic lids, mixed gently and then incubated for 18 to 24 hours at 37° C. in a 5% carbon dioxide atmosphere.
(§5) Following incubation the plates are centrifuged for 10 minutes at 1000 rpm (˜200×g) at 4° C. The cell-free culture supernatant is removed with a sterile polypropylene pipet and transferred to sterile polypropylene tubes. Samples are maintained at −30 to −70° C. until analysis. The samples are analyzed for interferon (α) by ELISA and for tumor necrosis factor (α) by ELISA or IGEN Assay
Interferon (α) and Tumor Necrosis Factor (α) Analysis by ELISA Interferon (α) concentration is determined by ELISA using a Human Multi-Species kit from PBL Biomedical Laboratories, New Brunswick, N.J. Results are expressed in pg/mL.
(§6) The table below lists the lowest concentration found to induce interferon and the lowest concentration found to induce tumor necrosis factor for each compound.

[2] = tested on: tumor necrosis factor (α); assay: Cytokine Induction in Human Cells: tumor necrosis factor induction in PBMC; assay type: cell-based; set-up: key to Lowest Effective Concentration (μM) Tumor Necrosis Factor: *: no induction was seen at any of the tested concentrations; generally the highest concentration tested was 10 or 30 μM; conditions: 18 to 24 hours incubation, tested 30–0.014 μM, ELISA or IGEN assay; for minimal effective concentration: read-out: Lowest Effective Concentration (μM) Tumor Necrosis Factor
Text: as §1, §2, §3, §4, §5
Tumor necrosis factor (α) (TNF) concentration is determined using ELISA kits available from Biosource International, Camarillo, Calif. Alternately, the TNF concentration can be determined by Origen® M-Series Immunoassay and read on an IGEN M-8 analyzer from IGEN International, Gaithersburg, Md. The immunoassay uses a human TNF capture and detection antibody pair from Biosource International, Camarillo, Calif. Results are expressed in pg/mL.
as §6

| melting point [°C] | Compound | minimal effective concentration [1] [µM] | Lowest Effective Concentration (μM) Tumor Necrosis Factor [2] | minimal effective concentration [2] [µM] |
| --- | --- | --- | --- | --- |
| 141 to 143 | COCCc1nc2c(N)nc3c(c2n1CCOCCNC(=O)c1ccccc1)CCCC3 [Example 6, N-(2-{2-[4-amino-2-(2-methoxyethyl)-6,7,8,9-tetrahydro-1H-imidazo[4,5-c]quinolin-1-yl]ethoxy}ethyl)benzamide] |  |  |  |
| 154 to 156 | CCOCc1nc2c(N)nc3ccccc3c2n1CCOCCNC(=O)c1ccccc1 [Example 72, N-(2-{2-[4-amino-2-(ethoxymethyl)-1H-imidazo[4,5-c]quinolin-1-yl]ethoxy}ethyl)benzamide] |  |  |  |
| 188 to 191 | CCc1nc2c(N)nc3ccccc3c2n1CCOCCNC(=O)c1ccccc1 [Example 71, N-{2-[2-(4-amino-2-ethyl-1H-imidazo[4,5-c]quinolin-1-yl)ethoxy]ethyl}benzamide] |  |  |  |
| 93.5 to 97 | COCCc1nc2c(N)nc3ccccc3c2n1CCOCCN(C)C(=O)c1ccccc1 [Example 8, N-(2-{2-[4-amino-2-(2-methoxyethyl)-1H-imidazo[4,5-c]quinolin-1-yl]ethoxy}ethyl)-N-methylbenzamide] |  |  |  |
| 184 to 187 | COCCc1nc2c(N)nc3ccccc3c2n1CCOCCNC(=O)c1ccccc1 [Example 4, N-(2-{2-[4-amino-2-(2-methoxyethyl)-1H-imidazo[4,5-c]quinolin-1-yl]ethoxy}ethyl)benzamide] |  |  |  |
|  | CN(C(=O)CCCCOCCn1cnc2c(N)nc3ccccc3c21)c1ccccc1 [Example 12, 5-[2-(4-amino-1H-imidazo[4,5-c]quinolin-1-yl)ethoxy]-N-methyl-N-phenylpentanamide] | 3.33 | * |  |
|  | CCC(COCCC1CCN(C(=O)c2cccnc2)CC1)n1cnc2c(N)nc3ccccc3c21 (stereo not drawn) [Example 46] | 0.1 |  | 1 |
| 83 to 87 | COCCc1nc2c(N)nc3c(c2n1CCOCCN(C)C(=O)c1ccccc1)CCCC3 [Example 10, N-(2-{2-[4-amino-2-(2-methoxyethyl)-6,7,8,9-tetrahydro-1H-imidazo[4,5-c]quinolin-1-yl]ethoxy}ethyl)-N-methylbenzamide] |  |  |  |
|  | CCC(COCCC1CCN(C(=O)c2cccc(C(F)(F)F)c2)CC1)n1cnc2c(N)nc3ccccc3c21 (stereo not drawn) [Example 50] | 1 |  | 1 |
|  | Nc1nc2ccccc2c2c1ncn2CCOCCNC(=O)c1ccccc1 [Example 53] | 10 |  | 10 |
|  | CCCCc1nc2c(N)nc3ccccc3c2n1CCOCCNC(=O)c1ccc(F)cc1 [Example 21] | 1 |  | 10 |
|  | CCC(COCCC1CCN(C(=O)C2CCCC2)CC1)n1cnc2c(N)nc3ccccc3c21 (stereo not drawn) [Example 37] | 1 |  | 1 |
|  | CCCCc1nc2c(N)nc3ccccc3c2n1CCOCCNC(=O)C1CC1 [Example 15] | 0.1 |  | 1 |
|  | Nc1nc2ccccc2c2c1ncn2CCOCCNC(=O)Cc1ccccc1 [Example 55] | 1 |  | 10 |
|  | CCCCc1nc2c(N)nc3ccccc3c2n1CCOCCNC(=O)C1CCCCC1 [Example 19] | 1 |  | 10 |
